Test results published in publication PMC11586601 (Journal of Inherited Metabolic Disease, 2024).
One block for each molecule: values may come before it.

Assays:
[1] = target: cHuNAGS (linker-cleaved) (Homo sapiens, UniProt Q8N159, V350I); assay: biochemical
[2] = target: T1, cHuNAGS (linker-cleaved) (Homo sapiens, UniProt Q8N159); assay: biochemical
T1 sequence (Q8N159 95-534): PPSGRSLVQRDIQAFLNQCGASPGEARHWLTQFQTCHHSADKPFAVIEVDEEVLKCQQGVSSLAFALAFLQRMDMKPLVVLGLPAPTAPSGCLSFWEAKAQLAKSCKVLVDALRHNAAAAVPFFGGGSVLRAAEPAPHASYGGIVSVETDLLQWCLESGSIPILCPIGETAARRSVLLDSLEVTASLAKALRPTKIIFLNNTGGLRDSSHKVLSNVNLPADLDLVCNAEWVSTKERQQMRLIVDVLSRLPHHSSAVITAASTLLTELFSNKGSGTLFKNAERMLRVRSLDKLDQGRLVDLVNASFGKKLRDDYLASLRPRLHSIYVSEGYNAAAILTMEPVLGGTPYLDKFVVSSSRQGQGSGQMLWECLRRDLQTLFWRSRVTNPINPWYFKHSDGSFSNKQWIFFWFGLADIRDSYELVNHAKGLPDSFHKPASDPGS

[3] = target: the molecule itself; assay: SEC

Sequence of cHuNAGS (linker-cleaved) (Homo sapiens, UniProt Q8N159, V350I) (Q8N159 95-534 V350I): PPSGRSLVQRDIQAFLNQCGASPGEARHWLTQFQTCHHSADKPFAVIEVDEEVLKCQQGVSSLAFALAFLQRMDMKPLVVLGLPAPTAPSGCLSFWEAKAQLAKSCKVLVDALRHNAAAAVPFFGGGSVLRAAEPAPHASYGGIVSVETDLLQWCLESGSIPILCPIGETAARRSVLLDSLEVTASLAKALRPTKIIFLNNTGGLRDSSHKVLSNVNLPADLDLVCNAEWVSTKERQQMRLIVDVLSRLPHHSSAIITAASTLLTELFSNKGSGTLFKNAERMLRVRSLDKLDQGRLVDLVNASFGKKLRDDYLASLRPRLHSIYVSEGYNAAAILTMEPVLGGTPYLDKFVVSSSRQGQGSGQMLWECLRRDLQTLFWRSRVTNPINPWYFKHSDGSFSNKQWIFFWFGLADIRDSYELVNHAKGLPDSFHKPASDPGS

EC50 [1]: > 4000 µM
EC50 [2]: ~20 µM
Molecule: N=C(N)NCCC[C@H](N)C(=O)O [arginine]

B1: His6-MBP-cHuNAGS chimera (wild-type) (domain or fragment, human)
chain: LEVLFQGPMPPSGRSLVQRDIQAFLNQCGASPGEARHWLTQFQTCHHSADKPFAVIEVDEEVLKCQQGVSSLAFALAFLQRMDMKPLVVLGLPAPTAPSGCLSFWEAKAQLAKSCKVLVDALRHNAAAAVPFFGGGSVLRAAEPAPHASYGGIVSVETDLLQWCLESGSIPILCPIGETAARRSVLLDSLEVTASLAKALRPTKIIFLNNTGGLRDSSHKVLSNVNLPADLDLVCNAEWVSTKERQQMRLIVDVLSRLPHHSSAVITAASTLLTELFSNKGSGTLFKNAERMLRVRSLDKLDQGRLVDLVNASFGKKLRDDYLASLRPRLHSIYVSEGYNAAAILTMEPVLGGTPYLDKFVVSSSRQGQGSGQMLWECLRRDLQTLFWRSRVTNPINPWYFKHSDGSFSNKQWIFFWFGLADIRDSYELVNHAKGLPDSFHKPASDPGS
binding result [3]: binds
